The text below walks through data of US11150251B2, “Bi-functional arginine-glycine-aspartic acid (RGD) peptides and methods to promote angiogenesis” (Clemson University Research Foundation, priority 2016, dated 2021).

The subject of the experiment is HUVECs. Description: HUVEC vascular network formation in 3D multi-signaling alginate hydrogels (integrin-binding peptide + QK peptide). The format is cell-based, human. To be noted: 5% (w/w) MMP-responsive QK peptides, preliminary data. From the text:
To synergize with the α1 peptide, we used the α1 peptide and an MMP-responsive QK peptide (i.e., GPQG↓IAGKLTWQELYQLKYKGI, SEQ ID NO:41) to prepare an alginate-based injectable, multi-signaling hydrogels (FIG. 9). The MMP-responsive QK peptide was selected to introduce cell-dictated local release of angiogenic factors to recapitulate the pro-angiogenic microenvironment in vivo, where matrix bound VEGF is released by MMPs. Alginates was selected because it has been used as a biocompatible, injectable hydrogel-forming material to treat ischemic diseases.
We developed a modular approach to prepare the multi-signaling hydrogels (FIG. 10). Briefly, we have prepared alginates functionalized with α1 peptide (10% (w/w)) as well as alginates functionalized with MMP-responsive QK peptide (10% (w/w)) using click chemistry. We then mixed these two alginates at a ratio 1:1 (w/w) to prepare multi-signaling hydrogels to simultaneously engage αvβ3, VLA-6 integrins and VEGFR2. This modular approach allowed us to rapidly prepare alginates with different peptide functionalization to screen for an optimal formulation to support EC morphogenesis.

Take “GPQG↓IAGKLTWQELYQLKYKGI (GPQGIAGKLTWQELYQLKYKGI) [MMP-responsive QK peptides, QK peptide with MMP degradable linkage]”: the “EC vascular network formation at given QK peptide content” value is reported as “sufficient to promote EC vascular network formation”.
